Values quoted from earlier work as cited in patent US20190290552A1, “ETHANOLIC COMPOSITIONS COMPRISING PERFUME” (Conopco, Inc., d/b/a UNILEVER, priority 2016, published 2019).

Settings: taken from the Good Scents website

First: CC(C=O)Cc1ccc(C(C)(C)C)cc1 (centres unmarked) [Lilial]
Second: C=CC(C)(CCC=C(C)C)OC(=O)CCC (centres unmarked) [Linalyl Butyrate]
The LogKow of the first is lower: 3.6 for the first, 4.1 for the second.

Going from `C=CC(C)(O)CCC=C(C)C` (centres unmarked) [Linalool] to `C=CC(C)(O)CCC=C(C)CC` (centres unmarked) [3,7-Dimethyl-1,6-nonadien-3-ol], the LogKow rises from 2.7 to 3.7.

First: CCCCCC1C(=O)CCC1CC(=O)OC (centres unmarked) [Methyl dihydrojasmonate]
Second: C=C(C)[C@H]1CC=C(C)CC1 [Limonene]
The LogKow of the first is lower: 2.7 for the first, 3.4 for the second.

`CC1=CC[C@]2(C)CCCC(C)(C)[C@@]23C[C@@H]13` [Thujopsene] and `O=C1CCCCCCCCCCCCO1` [Oxacyclotetradecan-2-one] are within 0.2 log units of each other in LogKow: 4.8 for the first, 4.7 for the second.
